Patent publication US11834432B2, “Substituted amino six-membered nitric heterocyclic ring compound and preparation and use thereof” (SHANGHAI INSTITUTE OF MATERIA MEDICA, CHINESE ACADEMY OF …, priority 2016, dated 2023)

How the values were obtained:
[1] = test system: human gastric cancer SNU-16 subcutaneously transplanted tumor; experiment: Growth of subcutaneously transplanted tumor in human gastric cancer SNU-16 nude mice; format: in vivo
Experimental: The human gastric cancer SNU-16 cell strain was preserved in our laboratory.
S10 groups (30 mg/kg and 10 mg/kg) were orally administered once a day for 21 days; AZD4547 group (10 mg/kg) was administered orally once a day for 21 days; solvent control group was given the same amount of water for injection.

[2] = test system: human gastric cancer SNU-16 subcutaneously transplanted tumor; experiment: as above; format: in vivo; remark: listed apart in the source
[3] = test system: human lung cancer NCI-H1581 subcutaneously transplanted tumor; experiment: Growth of subcutaneously transplanted tumor in human lung cancer NCI-H1581 nude mice
Experimental: The cell strain was inoculated in the right axilla of the nude mice, and the amount of cells inoculated was 5×10^6/mouse to form transplanted tumor, which was directly inoculated and used.
The tumor tissue in the prosperous growth period was cut into 1.5 mm^3, and inoculated subcutaneously in the right axilla of the nude mice under aseptic conditions. The diameter of the transplanted tumor in the nude mice was measured with a vernier caliper, and the animals were randomly grouped when the average volume of tumors was about 150-160 mm^3. […] The solvent control group was given an equal amount of water for injection. The diameter of the transplanted tumor was measured twice a week during the entire experiment, and the body weight of the mice was also weighed. The calculation formula of tumor volume (TV) is: TV=1/2×a×b^2, where a and b respectively represent the length and width of the tumor. The relative tumor volume (RTV) was calculated based on the measured results and the formula was: RTV=Vt/V0, where V0 is the tumor volume measured at grouping and dosing (d0), and Vt is the tumor volume at each measurement.

[4] = target: FGFR1 kinase domain recombinant protein (Homo sapiens (Human), UniProt P11362); experiment: Inhibition of receptor tyrosine kinase FGFR1 activity (ELISA); format: biochemical; settings: for inhibition at 0.1 µM: 1 h, read-out: Inhibition ratio (%) @ 0.1 μM
Experimental: 1. Preliminary Evaluation Inhibition on Receptor Tyrosine Kinase FGFR1 Activity of Compound
1. […] The liquid from the well was discarded. The plate was washed for three times with T-PBS (0.1% Tween-20 in potassium-free PBS, 200 μL/well), 5 minutes for each time. The elisa plate was dried in 37° C. dryer for 1-2 hours.
2. 49 μL of ATP solution diluted in reaction buffer (50 mM HEPES pH 7.4, 50 mM MgCl2, 0.5 mM MnCl2, 0.2 mM Na3VO4, 1 mM DTT) was added into each well, and 1 μL of the test compound was added to each well, and then 50 μL of FGFR1 kinase domain recombinant protein diluted in reaction buffer was added to initiate the reaction, and two control wells without ATP were required for each experiment. The reaction was performed on a Shaker (100 rpm) at 37° C. for 1 hour. The liquid from the well was discarded, and the plate was washed with T-PBS for three times.
3. The antibody PY99 dilution (antibody diluted 1:500 in T-PBS with BSA 5 mg/mL) was added at 100 μL/well, and shaken for 0.5 hours on a 37° C. shaker. The liquid from the well was discarded, and the plate was washed with T-PBS for three times.
4. The horseradish peroxidase-labeled goat anti-mouse second antibody dilution (antibody diluted 1:2000 in T-PBS with BSA 5 mg/mL) was added at 100 μL/well, and shaken for 0.5 hours on a 37° C. shaker. The liquid from the well was discarded, and the plate was washed with T-PBS for three times.
5. 2 mg/mL OPD coloration solution (diluted with 0.1 M citric acid-sodium citrate buffer containing 0.03% H2O2 (pH=5.4)) was added at 100 μL/well, and reacted for 1-10 minutes at 25° C. in darkness.
6. The reaction was quenched with 50 μL/well of 2M H2SO4, and the plate was read using a tunable microplate microplate reader VERSAmax at 490 nm.
(§1) The IC50 values were obtained by four-parameter regression analysis using the software supplied with the microplate reader.

[5] = test system: SNU16 cells; experiment: Inhibition of proliferation of SNU16 cells (CCK-8); format: cell-based; settings: Homo sapiens, SNU-16, 72 h; for inhibition at 0.01 µM: 10 nM; for inhibition at 0.01 µM / inhibition at 0.1 µM / inhibition at 1 µM: 72 h, read-out: Inhibition ratio (%); for inhibition at 0.1 µM: 100 nM; for inhibition at 1 µM: 1000 nM
Experimental: The inhibitory effect on proliferation of SNU16 cells of a compound was examined by CCK-8 Cell Counting Kit (Dojindo). The steps are as follows: SNUI 6 cells at Logarithmic growth phase were seeded in a 96-well culture plate at appropriate density, 90 ul for each well. After cultured overnight, different concentrations of drugs were added and treated for 72 h, while solvent control well was set (negative control). After 72 h, the influence of the compound on the proliferation of cells was observed by CCK-8 cell counting kit (Dojindo). 10 μL of CCK-8 reagent was added to each well. After incubated for 2-4 hours in a 37° C. incubator, the plate was read with SpectraMax 190 microplate reader at wavelength 450 nm.
as §1

FGFR1 kinase domain recombinant protein, sequence (P11362 478-767): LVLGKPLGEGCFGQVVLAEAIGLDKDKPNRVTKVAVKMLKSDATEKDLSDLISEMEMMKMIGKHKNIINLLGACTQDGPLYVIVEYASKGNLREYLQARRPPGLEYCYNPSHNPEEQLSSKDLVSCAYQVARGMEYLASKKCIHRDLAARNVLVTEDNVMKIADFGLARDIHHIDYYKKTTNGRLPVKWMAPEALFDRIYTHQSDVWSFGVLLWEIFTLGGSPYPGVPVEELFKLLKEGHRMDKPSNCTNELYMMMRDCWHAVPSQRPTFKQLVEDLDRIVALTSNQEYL

Row | SMILES | IC50 [4] [nM] | inhibition at 0.1 µM [4] [%] | inhibition at 0.01 µM [5] [%] | inhibition at 0.1 µM [5] [%] | inhibition at 1 µM [5] [%] | also measured
1 | COc1cc(CCc2cc(NC(=O)c3ccc(N4CC(C)NC(C)C4)cc3)n[nH]2)cc(OC)c1 (centres unmarked) [AZD4547, reference compound] | – | – | – | – | – | Body weight (g) d0 ([1]; 10 mg/kg po qd/21, d0): 20.1 g; TV (mm^3, mean ± SD) d0 ([1]; 10 mg/kg po qd/21, d0): 103 ± 18 mm^3; Body weight (g) d21 ([1]; 10 mg/kg po qd/21, d21): 22.4 g; RTV (mean ± SD) ([1]; 10 mg/kg po qd/21, d21): 8.21 ± 3.91; T/C (%) ([1]; 10 mg/kg po qd/21, d21): 59.80%; TV (mm^3, mean ± SD) d21 ([1]; 10 mg/kg po qd/21, d21): 790 ± 247 mm^3
2 | CNC(=O)n1ccc2cc(Oc3ccnc(NC(=O)c4ccc(C5CCN(CCO)CC5)cc4)c3)c(OCCOC)cc21 [Compound E7090, reference compound] | – | – | – | – | – | Relative tumor proliferation rate T/C (%) ([2]; 6.25 mg/Kg): 49%; Relative tumor proliferation rate T/C (%) ([2]; 25 mg/Kg): 17%; Relative tumor proliferation rate T/C (%) ([2]; 50 mg/Kg): 18%; Relative tumor proliferation rate T/C (%) ([1]; 12.5 mg/Kg): 26%; Relative tumor proliferation rate T/C (%) ([3]; 6.25 mg/Kg): 46%; Relative tumor proliferation rate T/C (%) ([3]; 12.5 mg/Kg): 21%; Relative tumor proliferation rate T/C (%) ([3]; 25 mg/Kg): 13%; Relative tumor proliferation rate T/C (%) ([3]; 50 mg/Kg): 8%
3 | CNC(=O)c1cccc2cc(Oc3ccnc(NC(=O)c4ccc(OCCN5CC(F)C5)cc4)c3)ccc12 [Compound S1] | < 100 | 72 | – | – | – | –
4 | CNC(=O)c1cccc2cc(Oc3ccnc(NC(=O)c4ccc(OCCN5CC(F)(F)C5)cc4)c3)ccc12 [Compound S2] | < 100 | 80 | – | – | – | –
5 | CNC(=O)c1cccc2cc(Oc3ccnc(NC(=O)c4ccc(N5CCN(C)CC5)cc4)c3)ccc12 [Compound S5] | – | 87 | 60.4 | 60.1 | 57.8 | IC50 [5]: 13.8 nM
6 | CNC(=O)c1cccc2cc(Oc3ccnc(NC(=O)c4ccc(CN5CCN(C)CC5)c(C(F)(F)F)c4)c3)ccc12 [Compound S12] | < 1000 | 44 | – | – | – | –
7 | CNC(=O)c1cccc2cc(Oc3ccnc(NC(=O)c4ccc(N5C[C@@H](C)N[C@@H](C)C5)cc4F)c3)ccc12 [Compound S13] | > 1000 | 23 | – | – | – | –
8 | CNC(=O)c1cccc2cc(Oc3ccnc(NC(=O)c4ccc(N5C[C@@H](C)N[C@@H](C)C5)cc4OC)c3)ccc12 [Compound S14] | < 1000 | 40 | – | – | – | –
9 | CNC(=O)c1cccc2cc(Oc3ccnc(NC(=O)c4ccc(N5C[C@@H](C)N[C@@H](C)C5)cc4C)c3)ccc12 [Compound S15] | < 100 | 71 | – | – | – | –
10 | CNC(=O)c1cccc2cc(Oc3ccnc(NC(=O)c4cnc(N5C[C@@H](C)N[C@@H](C)C5)nc4)c3)ccc12 [Compound S16] | < 100 | 58 | 26.4 | 55.3 | 61.6 | –
11 | CNC(=O)c1cccc2cc(Oc3ccnc(NC(=O)c4csc(N5CCN(C)CC5)n4)c3)ccc12 [Compound S17] | < 100 | 59 | – | – | – | –
12 | CNC(=O)c1cccc2cc(Oc3ccnc(NC(=O)c4coc(N5CCN(C)CC5)n4)c3)ccc12 [Compound S18] | < 100 | 65 | – | – | – | –

Continued, in another order:

Row | IC50 [4] [nM] | inhibition at 0.1 µM [4] [%] | SMILES | inhibition at 0.01 µM [5] [%] | inhibition at 0.1 µM [5] [%] | inhibition at 1 µM [5] [%] | also measured
13 | < 10 | 90 | CNC(=O)c1cccc2cc(Oc3ccnc(NC(=O)c4ccc(OCC5(N)CC5)cc4)c3)ccc12 [Compound S3] | – | – | – | –
14 | < 10 | 74 | CNC(=O)c1cccc2cc(Oc3ccnc(NC(=O)c4ccc(OCCN5CCCC5)cc4)c3)ccc12 [Compound S4] | 55.3 | 61 | 59 | IC50 [5]: 29.2 nM
15 | < 10 | 84 | CNC(=O)c1cccc2cc(Oc3ccnc(NC(=O)c4ccc(C5CCNCC5)cc4)c3)ccc12 [Compound S6] | 45.1 | 63.5 | 59.6 | IC50 [5]: 15.9 nM
16 | < 10 | 91 | CNC(=O)c1cccc2cc(Oc3ccnc(NC(=O)c4ccc(N5CCOCC5)cc4)c3)ccc12 [Compound S7] | 30.1 | 53.3 | 60.5 | –
17 | < 10 | 93 | CNC(=O)c1cccc2cc(Oc3ccnc(NC(=O)c4ccc(N5CC(C)OC(C)C5)cc4)c3)ccc12 (centres unmarked) [Compound S8] | 23.2 | 36.3 | 48.1 | –
18 | < 10 | 95 | CNC(=O)c1cccc2cc(Oc3ccnc(NC(=O)c4ccc(N5CCNC(C)C5)cc4)c3)ccc12 (centres unmarked) [Compound S9] | 70.9 | 73.2 | 73.3 | IC50 [5]: 13.8 nM
19 | < 10 | 89 | CNC(=O)c1cccc2cc(Oc3ccnc(NC(=O)c4ccc(N5CCN(CCO)CC5)cc4)c3)ccc12 [Compound S11] | – | – | – | –
20 | < 10 | 86 | CNC(=O)c1cccc2cc(Oc3ccnc(NC(=O)c4cnn(CCO)c4)c3)ccc12 [Compound S19] | – | – | – | –
21 | < 10 | 94 | CNC(=O)c1cccc2cc(Oc3ccnc(NC(=O)c4ccc(N5C[C@@H](C)N[C@@H](C)C5)cc4)n3)ccc12 [Compound S20] | – | – | – | –
22 | < 10 | 86 | CNC(=O)c1cccc2cc(Oc3ccnc(NC(=O)c4ccc(NCC5(O)CCOCC5)cc4)c3)ccc12 [Compound S23] | – | – | – | –
23 | < 10 | 87 | COC(=O)c1cccc2cc(Oc3ccnc(NC(=O)c4ccc(N5C[C@@H](C)N[C@@H](C)C5)cc4)c3)ccc12 [Compound S24] | – | – | – | –
